Tested on: Cancer cells
Assay: MTT assay-A positive control group
Type: cell-based
Details: Triton X100 1%, positive control C2
Experimental: MTT (3-(4,5 dimethylthiazole-2-yl)-2,5-diphenyl tetrazolium bromide) is a proven cell viability indicator and this yellow colored tetrazolium salt gets reduced to purple colored formazan crystals by mitochondrial reductase enzyme seen only in metabolically active cells. It measures the cell proliferation rate and the reduction in cell viability when metabolic events lead to apoptosis or necrosis. Triplicate samples were analyzed and cell viability was calculated in percentage with respect to negative control group as follows Cell viability (%)=(Nt/Nc)×100 Nt is the absorbance of cells treated with sample and Nc is the absorbance of untreated cells (negative control group-Cell culture medium alone). The cell survival rate of negative control group is 100%. The results of MTT assays are shown in Figures, Wherein, the horizontal axis represents concentration of test sample and the vertical axis represents the cell survival rate. […]
Cancer cells were incubated for 2 days. […] Optical density of the solution was measured at a wavelength of 570 nm using a Beckmann Coulter Elisa plate reader (BioTek Power Wave XS). […]

## Triton X100
  cells killed: more than 90%

From US9789153B2, “Composition for preventing cancer and treating cancer and intensifying the effects of other anticancer drugs” (priority 2014, dated 2017)
